Measured values as given in patent publication US7517857B2, “Immune-modulating peptide” (POSCO, priority 2002, dated 2009).
Where a SMILES comes first, the peptide text is derived from it. Where no end group is shown, it is not given here. [ ]: non-standard residue; d: D form.

Key:
Format in all cases: cell-based
FPR = target: T1, FPR (Homo sapiens, UniProt P21462); assay: [Ca2+]i increase in FPR-expressing RBL-2H3 cells (fura-2); conditions: for EC50 (nM), intracellular calcium increase / EC50: fura-2 loaded; for EC50: read-out: EC50 (nM), intracellular calcium increase
T1 construct: expressed in transfected cells; host or cells: RBL-2H3 (rat basophilic leukemia) cells, G418-selected
T1 sequence (P21462 1-350): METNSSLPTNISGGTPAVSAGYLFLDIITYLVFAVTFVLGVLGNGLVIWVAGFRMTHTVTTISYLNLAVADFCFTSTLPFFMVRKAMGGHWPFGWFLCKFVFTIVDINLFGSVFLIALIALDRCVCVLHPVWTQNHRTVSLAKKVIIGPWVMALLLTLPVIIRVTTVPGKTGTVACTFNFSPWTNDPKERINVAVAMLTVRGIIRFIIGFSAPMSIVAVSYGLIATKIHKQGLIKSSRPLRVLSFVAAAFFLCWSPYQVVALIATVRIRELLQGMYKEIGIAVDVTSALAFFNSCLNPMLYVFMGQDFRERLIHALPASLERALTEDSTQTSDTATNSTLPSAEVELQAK

FPRL1 = target: T2, FPRL1 (Homo sapiens, UniProt P25090); assay: [Ca2+]i increase in FPRL1-expressing RBL-2H3 cells (fura-2); conditions: for EC50: fura-2 loaded, read-out: EC50 (nM), intracellular calcium increase
T2 construct: expressed in transfected cells; host or cells: RBL-2H3 (rat basophilic leukemia) cells, G418-selected
T2 sequence (P25090 1-351): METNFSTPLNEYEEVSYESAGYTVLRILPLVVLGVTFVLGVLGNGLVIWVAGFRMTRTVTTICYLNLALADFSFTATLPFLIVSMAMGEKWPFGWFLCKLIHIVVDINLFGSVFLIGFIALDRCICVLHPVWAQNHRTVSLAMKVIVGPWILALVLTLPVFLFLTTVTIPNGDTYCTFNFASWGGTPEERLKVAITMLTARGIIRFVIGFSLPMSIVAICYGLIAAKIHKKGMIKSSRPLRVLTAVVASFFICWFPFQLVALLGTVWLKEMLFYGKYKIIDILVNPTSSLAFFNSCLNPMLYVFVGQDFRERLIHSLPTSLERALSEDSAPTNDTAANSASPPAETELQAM
Method: […] The level of [Ca^2+]i was determined fluorometrically by Grynkiewicz's method using fura-2/AM (15). Briefly, prepared cells were incubated with 3 μM fura-2/AM at 37° C. for 50 min in a fresh serum-free RPMI 1640 medium under continuous stirring. 2×10^6 cells were aliquoted for each assay in Ca^2+-free Locke's solution (154 mM NaCl, 5.6 mM KCl, 1.2 mM MgCl2, 5 mM HEPES, pH 7.3, 10 mM glucose, and 0.2 mM EGTA). Fluorescence changes at the dual excitation wavelengths of 340 nm and 380 nm and the emission wavelength of 500 nm were measured, and the calibrated fluorescence ratio was translated into [Ca^2+]i. The peak level of the increased [Ca^2+]i was monitored.
[…] The level of [Ca^2+]i was determined by the same procedures as above. The peak level of the increased [Ca^2+]i was monitored.

human neutrophils = assay: Superoxide generation in human neutrophils (cytochrome c reduction); conditions: for superoxide generating activity: 100 nM of peptides; for O^2− (nmol/10^6 cells), superoxide generation: cytochrome c reduction; for superoxide generation: 10 μM concentration
Method: Peripheral blood leukocyte concentrates were donated by the Ulsan Red Cross Blood Center (Ulsan, Korea). Human neutrophils were isolated according to the standard procedures of dextran sedimentation, hypotonic lysis of erythrocytes, and a lymphocyte separation medium gradient as described above (9). The isolated human neutrophils were then used promptly.
The activity of the peptides, WKYMVm, peptides of SEQ ID NOs: 1 to 24, and wkymvm on superoxide generation in human neutrophils was measured. Superoxide anion generation was quantified by measuring reduction of cytochrome c using a microtiter 96-well plate ELISA reader (Bio-Tekinstruments, EL312e, Winooski, Vt.) as described (14). The human neutrophils (1×10^6 cells/100 μl of RPMI 1640 medium per well of a 96-well plate) were preincubated with 50 μM cytochrome c at 37° C. for 1 min and then incubated with the indicated concentrations of peptides. The superoxide generation was measured as a change in light absorption at 550 nm over 5 minutes at 1 min intervals. From at least four independent experiments, peptides with active amino acids at each position were chosen.

| Molecule | EC50 (nM), intracellular calcium increase (FPR) | O^2− (nmol/10^6 cells), superoxide generation (human neutrophils; peptide 100 nM) [nmol/10^6 cells] | O^2− (nmol/10^6 cells), superoxide generation (human neutrophils; peptide 10 μM) [nmol/10^6 cells] | other results |
| --- | --- | --- | --- | --- |
| CSCC[C@H](NC(=O)[C@H](Cc1ccc(O)cc1)NC(=O)[C@@H](N)CCCCN)C(=O)N[C@H](C(N)=O)C(C)C [KYMV-NH2, Lys-Tyr-Met-Val-NH2] (H-KYMV-NH2) | inactive |  |  | EC50 (FPRL1): > 30000 nM |
| CSCC[C@H](NC(=O)[C@H](Cc1ccc(O)cc1)NC(=O)[C@@H](N)CCCCN)C(=O)N[C@H](C(=O)N[C@H](CCSC)C(N)=O)C(C)C [KYMVm-NH2, Lys-Tyr-Met-Val-D-Met-NH2] |  | 36.0 ± 3.56 | 49.2 ± 5.82 | superoxide generating activity (human neutrophils): stimulated superoxide generation |
| CSCC[C@H](N)C(=O)N[C@H](C(=O)N[C@H](CCSC)C(N)=O)C(C)C [MVm-NH2, Met-Val-D-Met-NH2] (H-Met-Val-[dM]-NH2) | inactive |  |  | EC50 (FPRL1): > 30000 nM |
| CSCC[C@H](NC(=O)[C@H](Cc1ccc(O)cc1)NC(=O)[C@H](CC(=O)O)NC(=O)[C@@H](N)Cc1c[nH]c2ccccc12)C(=O)N[C@H](C(=O)N[C@H](CCSC)C(N)=O)C(C)C [WDYMVm-NH2, Trp-Asp-Tyr-Met-Val-D-Met-NH2] (H-WDYMV[dM]-NH2; N-terminus assumed) |  | 25.8 ± 6.56 | 37.3 ± 5.66 |  |
| CSCC[C@H](NC(=O)[C@H](Cc1ccc(O)cc1)NC(=O)[C@H](CCC(=O)O)NC(=O)[C@@H](N)Cc1c[nH]c2ccccc12)C(=O)N[C@H](C(=O)N[C@H](CCSC)C(N)=O)C(C)C [WEYMVm-NH2, Trp-Glu-Tyr-Met-Val-D-Met-NH2] (H-WEYMV[dM]-NH2; N-terminus assumed) |  | 52.9 ± 12.78 | 35.3 ± 2.88 | superoxide generating activity (human neutrophils): stimulated superoxide generation |
| CSCC[C@H](NC(=O)[C@H](Cc1ccc(O)cc1)NC(=O)[C@H](Cc1c[nH]cn1)NC(=O)[C@@H](N)Cc1c[nH]c2ccccc12)C(=O)N[C@H](C(=O)N[C@H](CCSC)C(N)=O)C(C)C [WHYMVm-NH2, Trp-His-Tyr-Met-Val-D-Met-NH2] (H-WHYMV[dM]-NH2; N-terminus assumed) |  | 20.7 ± 7.85 | 20.7 ± 7.85 | [Ca^2+]i increasing activity (FPR): more improved affinity for the FPR against the peptide WKYMVm |
| CSCC[C@H](NC(=O)[C@H](CC(=O)O)NC(=O)[C@H](CCCCN)NC(=O)[C@@H](N)Cc1c[nH]c2ccccc12)C(=O)N[C@H](C(=O)N[C@H](CCSC)C(N)=O)C(C)C [WKDMVm-NH2, Trp-Lys-Asp-Met-Val-D-Met-NH2] (H-WKDMV[dM]-NH2; N-terminus assumed) |  | 16.3 ± 1.67 | 37.3 ± 2.78 | EC50 (FPR): 1330 ± 207 nM |
| CSCC[C@H](NC(=O)[C@H](CCC(=O)O)NC(=O)[C@H](CCCCN)NC(=O)[C@@H](N)Cc1c[nH]c2ccccc12)C(=O)N[C@H](C(=O)N[C@H](CCSC)C(N)=O)C(C)C [WKEMVm-NH2, Trp-Lys-Glu-Met-Val-D-Met-NH2] (H-WKEMV[dM]-NH2; N-terminus assumed) |  | 4.1 ± 0.21 | 39.2 ± 4.71 | EC50 (FPR): 1330 ± 88.8 nM |
| CSCC[C@H](NC(=O)[C@H](Cc1ccccc1)NC(=O)[C@H](CCCCN)NC(=O)[C@@H](N)Cc1c[nH]c2ccccc12)C(=O)N[C@H](C(=O)N[C@H](CCSC)C(N)=O)C(C)C [WKFMVm-NH2, Trp-Lys-Phe-Met-Val-D-Met-NH2] (H-WKFMV[dM]-NH2; N-terminus assumed) |  | 37.3 ± 3.56 | 60.2 ± 5.57 | [Ca^2+]i increasing activity (FPR): more improved affinity for the FPR against the peptide WKYMVm; superoxide generating activity (human neutrophils): stimulated superoxide generation; superoxide generation (human neutrophils): more potent activity than WKYMVm; [Ca^2+]i increasing activity (FPRL1): higher affinity to FPRL1 |
| CSCC[C@H](NC(=O)[C@H](Cc1c[nH]cn1)NC(=O)[C@H](CCCCN)NC(=O)[C@@H](N)Cc1c[nH]c2ccccc12)C(=O)N[C@H](C(=O)N[C@H](CCSC)C(N)=O)C(C)C [WKHMVm-NH2, Trp-Lys-His-Met-Val-D-Met-NH2] (H-WKHMV[dM]-NH2; N-terminus assumed) |  | 29.5 ± 7.71 | 39.3 ± 4.10 |  |
| CSCC[C@H](NC(=O)[C@H](Cc1ccc(O)cc1)NC(=O)[C@H](CCCCN)NC(=O)[C@@H](N)Cc1c[nH]c2ccccc12)C(=O)N[C@@H](Cc1ccc(O)cc1)C(=O)N[C@H](CCSC)C(N)=O [WKYMYm-NH2, Trp-Lys-Tyr-Met-Tyr-D-Met-NH2] (H-WKYMY[dM]-NH2; N-terminus assumed) |  | 25.8 ± 3.89 | 42.9 ± 3.34 | [Ca^2+]i increasing activity (FPRL1): higher affinity to FPRL1 |
| CSCC[C@H](NC(=O)[C@@H](N)Cc1ccc(O)cc1)C(=O)N[C@H](C(=O)N[C@H](CCSC)C(N)=O)C(C)C [YMVm-NH2, Tyr-Met-Val-D-Met-NH2] (H-YMV[dM]-NH2; N-terminus assumed) |  | 30.2 ± 2.74 | 41.8 ± 3.46 |  |
| Trp-Lys-Tyr-Met-(Phe/Trp)-D-Met-NH2 [WKYM(F/W)m-NH2] |  | 6.1 ± 0.77 | 45.6 ± 7.76 | [Ca^2+]i increasing activity (FPRL1): higher affinity to FPRL1 |
| WKYMV-NH2 [WKYMV-NH2, Trp-Lys-Tyr-Met-Val-NH2] | inactive | 9.2 ± 0.55 | 25.6 ± 2.20 |  |
| WKYMVG-NH2 [WKYMVG-NH2, Trp-Lys-Tyr-Met-Val-Gly-NH2] | inactive | 4.4 ± 0.54 | 27.3 ± 1.40 |  |
| WKYMVV-NH2 [WKYMVV-NH2, Trp-Lys-Tyr-Met-Val-Val-NH2] | inactive | 5.0 ± 0.21 | 36.3 ± 2.29 |  |
| WKYMVW-NH2 [WKYMVW-NH2, Trp-Lys-Tyr-Met-Val-Trp-NH2] | inactive | 11.5 ± 1.62 | 56.8 ± 4.60 | superoxide generation (human neutrophils): more potent activity than WKYMVm |
